Several values for one entry are separate records, joined by “and”; a condition that tells them apart may be missing. Equal values may be shown once.
Columns and labels:
Experiment in all cases: KINOMEscan competition binding
Conditions in all cases: compound 10.0 µM
CLK3 (human) = CLK3 (human) (UniProt P49761)
[1] = system: FLT3 (human), P36888 [D835Y]
MAPK3 (human) = MAPK3 (human) (UniProt P27361)
PRKCH (human) = PRKCH (human) (UniProt P24723)
STK35 (human) = STK35 (human) (UniProt Q8TDR2)
AURKC (human) = AURKC (human) (UniProt Q9UQB9)
MYO3A (human) = MYO3A (human) (UniProt Q8NEV4)
GRK4 (human) = GRK4 (human) (UniProt P32298)
MAP3K10 (human) = MAP3K10 (human) (UniProt Q02779)
PAK1 (human) = PAK1 (human) (UniProt Q13153)
BRSK1 (human) = BRSK1 (human) (UniProt Q8TDC3)
STK38 (human) = STK38 (human) (UniProt Q15208)
NEK3 (human) = NEK3 (human) (UniProt P51956)
TTK (human) = TTK (human) (UniProt P33981)
CAMK2D (human) = CAMK2D (human) (UniProt Q13557)
PHKG1 (human) = PHKG1 (human) (UniProt Q16816)
PDGFRB (human) = PDGFRB (human) (UniProt P09619)
ADCK3 (human) = ADCK3 (human) (UniProt Q8NI60)
[2] = system: LRRK2 (human), Q5S007 [G2019S]
[3] = system: FGFR3 (human), P22607 [G697C]
PLK4 (human) = PLK4 (human) (UniProt O00444)
CDC42BPA (human) = CDC42BPA (human) (UniProt Q5VT25)
CDK9 (human) = CDK9 (human) (UniProt P50750)
DDR2 (human) = DDR2 (human) (UniProt Q16832)
[4] = system: EGFR (human), P00533 [G719C]
STK16 (human) = STK16 (human) (UniProt O75716)
PRKAA1 (human) = PRKAA1 (human) (UniProt Q13131)
TNNI3K (human) = TNNI3K (human) (UniProt Q59H18)
TXK (human) = TXK (human) (UniProt P42681)
TLK2 (human) = TLK2 (human) (UniProt Q86UE8)
NEK11 (human) = NEK11 (human) (UniProt Q8NG66)
PRKCE (human) = PRKCE (human) (UniProt Q02156)
PRKD1 (human) = PRKD1 (human) (UniProt Q15139)
GRK1 (human) = GRK1 (human) (UniProt Q15835)
FLT3 (human) = FLT3 (human) (UniProt P36888)
NEK4 (human) = NEK4 (human) (UniProt P51957)
CDK17 (human) = CDK17 (human) (UniProt Q00537)
MAP3K12 (human) = MAP3K12 (human) (UniProt Q12852)
MARK1 (human) = MARK1 (human) (UniProt Q9P0L2)
RPS6KA1 KD1 (human) = RPS6KA1 KD1 (human) (UniProt Q15418)

LRRK2 (human), Q5S007 [G2019S], sequence (Q5S007 whole entry G2019S, looked up): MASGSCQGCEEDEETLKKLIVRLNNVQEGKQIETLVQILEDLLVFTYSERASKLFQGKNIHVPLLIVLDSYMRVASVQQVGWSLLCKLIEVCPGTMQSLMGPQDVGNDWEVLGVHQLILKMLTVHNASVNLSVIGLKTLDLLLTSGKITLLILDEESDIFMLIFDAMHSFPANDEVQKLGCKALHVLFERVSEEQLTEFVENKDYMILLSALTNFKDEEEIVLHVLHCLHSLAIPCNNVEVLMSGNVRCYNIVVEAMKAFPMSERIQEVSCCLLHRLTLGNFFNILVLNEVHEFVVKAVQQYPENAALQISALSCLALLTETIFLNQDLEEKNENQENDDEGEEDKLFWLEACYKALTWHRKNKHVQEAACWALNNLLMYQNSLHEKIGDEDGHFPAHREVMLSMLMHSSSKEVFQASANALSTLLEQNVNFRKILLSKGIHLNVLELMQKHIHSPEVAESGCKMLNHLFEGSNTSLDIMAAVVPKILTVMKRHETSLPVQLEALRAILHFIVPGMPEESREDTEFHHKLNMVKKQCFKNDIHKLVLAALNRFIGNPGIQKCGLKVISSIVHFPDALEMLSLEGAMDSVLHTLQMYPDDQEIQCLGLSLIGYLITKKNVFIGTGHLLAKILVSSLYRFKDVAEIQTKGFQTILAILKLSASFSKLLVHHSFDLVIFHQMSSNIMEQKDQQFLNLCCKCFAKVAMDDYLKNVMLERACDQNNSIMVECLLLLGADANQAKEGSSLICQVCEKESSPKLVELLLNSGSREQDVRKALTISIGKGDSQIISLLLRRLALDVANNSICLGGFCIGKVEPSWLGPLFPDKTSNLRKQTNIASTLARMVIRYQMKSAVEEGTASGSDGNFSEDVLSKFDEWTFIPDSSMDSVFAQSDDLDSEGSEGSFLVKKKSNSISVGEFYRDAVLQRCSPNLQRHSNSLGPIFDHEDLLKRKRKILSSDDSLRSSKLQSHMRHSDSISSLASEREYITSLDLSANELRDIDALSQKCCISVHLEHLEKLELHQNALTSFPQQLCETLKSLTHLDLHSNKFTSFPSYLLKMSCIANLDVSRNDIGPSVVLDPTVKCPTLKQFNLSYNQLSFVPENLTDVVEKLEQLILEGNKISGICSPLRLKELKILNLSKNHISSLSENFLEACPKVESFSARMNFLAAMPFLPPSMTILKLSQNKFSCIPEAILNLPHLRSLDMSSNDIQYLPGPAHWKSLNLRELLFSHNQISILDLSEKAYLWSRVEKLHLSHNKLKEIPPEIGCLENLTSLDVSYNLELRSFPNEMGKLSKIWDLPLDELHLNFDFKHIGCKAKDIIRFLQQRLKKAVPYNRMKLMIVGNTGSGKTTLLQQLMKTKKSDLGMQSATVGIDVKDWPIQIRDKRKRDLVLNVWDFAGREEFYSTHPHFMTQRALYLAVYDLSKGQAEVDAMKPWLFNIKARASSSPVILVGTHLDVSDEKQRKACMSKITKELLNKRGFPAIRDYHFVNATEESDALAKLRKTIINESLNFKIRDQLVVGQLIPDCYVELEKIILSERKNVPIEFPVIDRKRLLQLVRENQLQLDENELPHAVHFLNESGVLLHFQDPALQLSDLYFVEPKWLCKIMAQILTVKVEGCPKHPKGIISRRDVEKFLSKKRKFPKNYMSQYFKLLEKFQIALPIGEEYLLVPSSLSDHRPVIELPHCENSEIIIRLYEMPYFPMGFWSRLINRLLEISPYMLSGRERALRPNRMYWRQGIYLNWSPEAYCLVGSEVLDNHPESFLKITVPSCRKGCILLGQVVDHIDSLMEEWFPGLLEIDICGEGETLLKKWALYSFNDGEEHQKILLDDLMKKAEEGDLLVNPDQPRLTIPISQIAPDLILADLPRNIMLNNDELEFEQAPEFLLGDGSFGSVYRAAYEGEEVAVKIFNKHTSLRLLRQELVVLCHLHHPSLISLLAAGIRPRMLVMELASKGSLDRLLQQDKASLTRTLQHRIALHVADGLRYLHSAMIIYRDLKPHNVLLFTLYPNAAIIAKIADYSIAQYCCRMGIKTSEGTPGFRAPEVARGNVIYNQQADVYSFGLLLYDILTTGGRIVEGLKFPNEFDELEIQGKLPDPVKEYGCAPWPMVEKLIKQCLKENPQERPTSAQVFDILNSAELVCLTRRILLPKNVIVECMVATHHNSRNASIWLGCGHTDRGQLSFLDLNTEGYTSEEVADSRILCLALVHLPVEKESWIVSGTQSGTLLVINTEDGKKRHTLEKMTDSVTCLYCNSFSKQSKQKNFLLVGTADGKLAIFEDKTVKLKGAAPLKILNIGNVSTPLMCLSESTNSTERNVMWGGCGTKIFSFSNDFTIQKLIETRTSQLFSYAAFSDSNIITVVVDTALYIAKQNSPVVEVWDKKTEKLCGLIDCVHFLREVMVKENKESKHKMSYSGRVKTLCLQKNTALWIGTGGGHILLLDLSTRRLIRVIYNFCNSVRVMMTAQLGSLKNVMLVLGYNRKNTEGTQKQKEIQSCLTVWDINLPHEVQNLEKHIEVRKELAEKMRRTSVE
STK35 (human), sequence (Q8TDR2 whole entry, looked up): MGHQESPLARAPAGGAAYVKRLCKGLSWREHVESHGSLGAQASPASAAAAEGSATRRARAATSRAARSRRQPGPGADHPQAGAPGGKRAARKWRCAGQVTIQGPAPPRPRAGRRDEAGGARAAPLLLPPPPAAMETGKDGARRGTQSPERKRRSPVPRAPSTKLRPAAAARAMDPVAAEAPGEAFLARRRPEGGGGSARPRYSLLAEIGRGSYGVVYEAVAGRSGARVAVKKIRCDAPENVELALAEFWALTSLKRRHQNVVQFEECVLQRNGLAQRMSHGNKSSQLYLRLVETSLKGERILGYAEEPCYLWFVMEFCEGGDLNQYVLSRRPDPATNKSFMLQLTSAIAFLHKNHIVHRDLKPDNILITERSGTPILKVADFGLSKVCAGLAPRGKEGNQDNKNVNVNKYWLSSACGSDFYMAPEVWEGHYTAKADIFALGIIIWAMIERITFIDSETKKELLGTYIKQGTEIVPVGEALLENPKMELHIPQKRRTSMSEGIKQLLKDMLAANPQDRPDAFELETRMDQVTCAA
PLK4 (human), sequence (O00444 whole entry, looked up): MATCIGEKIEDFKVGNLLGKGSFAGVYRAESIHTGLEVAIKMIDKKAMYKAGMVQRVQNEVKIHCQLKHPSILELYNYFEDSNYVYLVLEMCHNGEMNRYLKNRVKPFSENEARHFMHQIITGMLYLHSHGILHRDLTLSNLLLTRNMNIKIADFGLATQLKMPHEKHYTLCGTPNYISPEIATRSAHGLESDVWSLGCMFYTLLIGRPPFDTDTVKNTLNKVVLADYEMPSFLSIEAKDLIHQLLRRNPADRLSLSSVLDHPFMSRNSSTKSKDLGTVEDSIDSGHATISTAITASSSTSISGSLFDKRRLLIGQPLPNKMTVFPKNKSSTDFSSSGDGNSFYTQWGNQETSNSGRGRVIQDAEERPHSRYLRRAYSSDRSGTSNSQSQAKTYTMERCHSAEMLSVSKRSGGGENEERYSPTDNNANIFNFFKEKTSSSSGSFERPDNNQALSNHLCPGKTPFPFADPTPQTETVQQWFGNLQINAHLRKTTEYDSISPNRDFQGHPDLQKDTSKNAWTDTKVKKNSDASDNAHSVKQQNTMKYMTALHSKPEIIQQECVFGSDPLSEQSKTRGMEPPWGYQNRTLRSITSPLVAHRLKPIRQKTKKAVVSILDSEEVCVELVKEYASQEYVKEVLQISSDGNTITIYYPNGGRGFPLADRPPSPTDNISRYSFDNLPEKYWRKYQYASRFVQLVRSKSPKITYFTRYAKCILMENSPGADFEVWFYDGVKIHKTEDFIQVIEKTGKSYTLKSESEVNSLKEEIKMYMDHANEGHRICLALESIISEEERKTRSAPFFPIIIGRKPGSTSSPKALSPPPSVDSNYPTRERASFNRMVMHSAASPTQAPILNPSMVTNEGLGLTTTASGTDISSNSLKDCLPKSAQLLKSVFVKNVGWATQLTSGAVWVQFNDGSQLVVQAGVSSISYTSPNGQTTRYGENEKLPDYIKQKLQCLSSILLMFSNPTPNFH
CDK17 (human), sequence (Q00537 whole entry, looked up): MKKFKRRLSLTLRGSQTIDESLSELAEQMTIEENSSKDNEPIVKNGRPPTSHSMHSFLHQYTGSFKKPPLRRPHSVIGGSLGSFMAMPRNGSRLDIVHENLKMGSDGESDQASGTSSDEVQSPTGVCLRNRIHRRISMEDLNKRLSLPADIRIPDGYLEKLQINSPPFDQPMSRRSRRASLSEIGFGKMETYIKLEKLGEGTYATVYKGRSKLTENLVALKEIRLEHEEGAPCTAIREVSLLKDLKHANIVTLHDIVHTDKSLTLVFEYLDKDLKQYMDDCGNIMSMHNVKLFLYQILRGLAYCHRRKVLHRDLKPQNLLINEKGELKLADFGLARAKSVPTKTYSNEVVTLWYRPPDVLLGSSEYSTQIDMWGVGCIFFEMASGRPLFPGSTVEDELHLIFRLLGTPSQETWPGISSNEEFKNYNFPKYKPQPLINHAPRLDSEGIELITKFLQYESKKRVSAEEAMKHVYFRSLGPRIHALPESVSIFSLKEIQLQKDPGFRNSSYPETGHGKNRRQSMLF
PHKG1 (human), sequence (Q16816 whole entry, looked up): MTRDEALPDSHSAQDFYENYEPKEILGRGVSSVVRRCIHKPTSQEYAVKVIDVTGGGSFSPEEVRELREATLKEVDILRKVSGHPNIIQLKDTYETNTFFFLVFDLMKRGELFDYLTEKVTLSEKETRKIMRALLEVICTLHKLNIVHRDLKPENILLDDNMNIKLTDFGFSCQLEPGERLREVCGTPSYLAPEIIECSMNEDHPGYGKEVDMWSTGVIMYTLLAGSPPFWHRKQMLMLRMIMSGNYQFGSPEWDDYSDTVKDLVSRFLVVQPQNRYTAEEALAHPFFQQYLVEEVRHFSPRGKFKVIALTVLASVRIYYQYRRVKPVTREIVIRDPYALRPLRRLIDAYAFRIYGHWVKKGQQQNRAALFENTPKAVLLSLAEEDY

SMILES: CNC(=O)Nc1ccc(-c2nc(N3CC4CCC(C3)O4)c3cnn(C4CCC5(CC4)OCCO5)c3n2)cc1
- kinase still bound, per cent of control (CLK3 (human)): 31%
- kinase still bound, per cent of control [1]: 99%
- kinase still bound, per cent of control (MAPK3 (human)): 97%
- kinase still bound, per cent of control (PRKCH (human)): 91%
- kinase still bound, per cent of control (STK35 (human)): 95%
- kinase still bound, per cent of control (AURKC (human)): 86%
- kinase still bound, per cent of control (MYO3A (human)): 52%
- kinase still bound, per cent of control (GRK4 (human)): 100%
- kinase still bound, per cent of control (MAP3K10 (human)): 100%
- kinase still bound, per cent of control (PAK1 (human)): 100%
- kinase still bound, per cent of control (BRSK1 (human)): 100%
- kinase still bound, per cent of control (STK38 (human)): 100%
- kinase still bound, per cent of control (NEK3 (human)): 100%
- kinase still bound, per cent of control (TTK (human)): 100%
- kinase still bound, per cent of control (CAMK2D (human)): 100%
- kinase still bound, per cent of control (PHKG1 (human)): 100%
- kinase still bound, per cent of control (PDGFRB (human)): 89%
- kinase still bound, per cent of control (ADCK3 (human)): 86%
- kinase still bound, per cent of control [2]: 65%
- kinase still bound, per cent of control [3]: 74%
- kinase still bound, per cent of control (PLK4 (human)): 75%
- kinase still bound, per cent of control (CDC42BPA (human)): 100%
- kinase still bound, per cent of control (CDK9 (human)): 100%
- kinase still bound, per cent of control (DDR2 (human)): 100%
- kinase still bound, per cent of control [4]: 80%
- kinase still bound, per cent of control (STK16 (human)): 98%
- kinase still bound, per cent of control (PRKAA1 (human)): 94%
- kinase still bound, per cent of control (TNNI3K (human)): 59%
- kinase still bound, per cent of control (TXK (human)): 94%
- kinase still bound, per cent of control (TLK2 (human)): 100%
- kinase still bound, per cent of control (NEK11 (human)): 99%
- kinase still bound, per cent of control (PRKCE (human)): 100%
- kinase still bound, per cent of control (PRKD1 (human)): 100%
- kinase still bound, per cent of control (GRK1 (human)): 100%
- kinase still bound, per cent of control (FLT3 (human)): 75% and 77%
- kinase still bound, per cent of control (NEK4 (human)): 82%
- kinase still bound, per cent of control (CDK17 (human)): 100%
- kinase still bound, per cent of control (MAP3K12 (human)): 93%
- kinase still bound, per cent of control (MARK1 (human)): 100%
- kinase still bound, per cent of control (RPS6KA1 KD1 (human)): 100%
